Data from US20240116875A1, “RATIONAL DESIGN, OPTIMIZATION, AND BIOLOGICAL EVALUATION OF NOVEL MEK4 INHIBITORS AGAINST PANCREATIC ADENOCARCINOMA” (NORTHWESTERN UNIVERSITY, priority 2022, published 2024).
Several values for one entry are separate records, joined by “and”; a condition that tells them apart may be missing. Equal entries are not always repeated. Entries after “also recorded” stand apart in the source; their conditions may differ. Where two headings read alike, the source gives them in different places.

Assays:
JNK1/2/3 = assay: scanEDGE DiscoverX kinome-wide scan, JNK1/2/3; assay type: binding; conditions: 10 μM
Text: (§1) To compare our compounds to the rest of the MEK inhibitors discovered thus far, we turned to the DiscoverX platform (KINOMEscan®, Eurofins DiscoverX), a widely used assay for comparing selectivity across the kinome. The DiscoverX platform reports the thermodynamic Kd in order to facilitate direct comparison of inhibitor affinity across the kinome, independent of ATP concentration.

97 kinases = assay: scanEDGE DiscoverX kinome-wide scan; assay type: binding; conditions: 10 μM
Text: as §1

CD18 cells = assay: cell proliferation (cell count after 72 hours), CD18; assay type: cell-based, human; conditions: CD18, 72 hours, varying doses, single agent
Procedure: (§2) After 72 hours, cells were trypsinized, counted, and the cell numbers were normalized against the DMSO treatment. Mean±SD. Graphs are representative of 3 biological replicates.
as §2
(§3) Cell numbers from different treatments were normalized against the DMSO treatment, and CDI is calculated as follows: CDI=AB/(A×B), with AB being the ratio of the combination groups to control group and A or B being the ratio of the single agent group to the DMSO group. Mean±SEM from 3 biological replicates.
(§4) We also examined the effects of these inhibitors on JNK phosphorylation and proliferation of two pancreatic cancer cell lines (CD18 and MiaPaCa2).
(§5) Human pancreatic cancer cell lines (CD18/HPAF-II and MiaPaCa2) and HEK293T cells were obtained from American Type Culture Collection. All cell lines were cultured according to the manufacturer's protocol. All media contained 10% Fetal Bovine Serum (FBS) and antibiotics (100 U/mL Penicillin and 100 μg/mL Streptomycin).

MiaPaCa2 cells = assay: cell proliferation (cell count after 72 hours), MiaPaCa2; assay type: cell-based, human; conditions: MiaPaCa2, 72 hours, varying doses, single agent
Procedure: as §2, §2, §3, §4, §5

[1] = test system: JNK phosphorylation in HEK293T cells; assay: anisomycin-induced JNK phosphorylation, western blotting, HEK293T; assay type: cell-based, human; conditions: anisomycin 45 minutes then compound 5 hours, increasing doses
Procedure: The blots are representative of at least three biological replicates.
as §4, §5
(§6) Whole cell extracts of cultured cells were prepared in radioimmunoprecipitation (RIPA) lysis buffer supplemented with phosphatase and protease inhibitors (Calbiochem). Protein concentration was determined by the bicinchoninic acid assay (BCA) (ThermoFisher) and separated by the SDS-PAGE technique. […] Secondary anti-mouse IgG (A4416) and anti-rabbit IgG (A6667) antibodies were purchased from Sigma-Aldrich and used a 1:4000 dilution. Images of blots were acquired on HyBlot ES Autoradiography Film (Thomas Scientific, Swedesboro, NJ, USA) following incubation with SuperSignal West Pico PLUS (ThermoFisher).

[2] = test system: JNK phosphorylation in CD18 cells; assay: anisomycin-induced JNK phosphorylation, western blotting, CD18; assay type: cell-based, human; conditions: CD18, anisomycin 45 minutes then compound 5 hours
Procedure: (§7) HSP90 was used as loading control. The blots are representative of at least three biological replicates.
as §4, §5, §6

[3] = test system: MEK7 expression in HEK293T cells; assay: MEK7 expression, western blotting, HEK293T; assay type: cell-based, human; conditions: anisomycin pretreatment, compound 100 μM, 5 hours
Procedure: as §7
(§8) We next evaluated the effects of our inhibitors on the phosphorylation activity and expression of MEK1/2, MEK3/6, and MEK7. […] We also evaluated the effects on p42/44 MAPK (ERK1/2), which functions downstream of MEK1/2.
as §6

MEK7 = molecular target: T1, MEK7 (Homo sapiens, UniProt O14733); assay: ADP-Glo kinase activity assay, MEK7; assay type: biochemical
T1 construct: purchased Carna Biosciences
T1 sequence (O14733 1-419): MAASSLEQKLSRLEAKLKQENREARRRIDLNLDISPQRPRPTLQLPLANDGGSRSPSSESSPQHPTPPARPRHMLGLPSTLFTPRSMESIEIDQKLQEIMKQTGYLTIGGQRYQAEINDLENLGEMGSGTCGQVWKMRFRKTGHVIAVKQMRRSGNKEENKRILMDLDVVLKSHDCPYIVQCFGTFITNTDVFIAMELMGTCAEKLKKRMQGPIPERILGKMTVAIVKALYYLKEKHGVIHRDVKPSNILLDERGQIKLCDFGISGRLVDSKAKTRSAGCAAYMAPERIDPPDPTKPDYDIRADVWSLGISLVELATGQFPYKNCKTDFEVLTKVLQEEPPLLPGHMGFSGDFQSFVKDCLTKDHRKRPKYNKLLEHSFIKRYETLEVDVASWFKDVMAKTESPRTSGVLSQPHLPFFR
Procedure: The compounds were then evaluated both in vitro and in a cellular system. When studying kinase inhibitors, there are a multitude of ways to evaluate selectivity across kinases.
Procedure for a 5 μL Kinase reaction using the ADP-Glo Kinase Assay Kit from Promega. Staurosporine was used as the positive control, and DMSO as the negative control. Activity of recombinant active full-length human MEK4 (Carna Biosciences) was measured using the ADP-Glo assay with recombinant full-length human p38α (MAPK14). Kinase reactions with MEK7 (Carna Biosciences) were done at the same concentration and amounts with recombinant full-length human p38α (MAPK14).
For each well, 4 ng of MEK4 and 600 ng of p38α in Kinase buffer (CST) were used, and 1 μL of this mixture was dispensed per well.
Inhibitor was prepared in a DMSO solution. A dose response dilution was done in a 384-well Echo transfer plate. […] This mixture was allowed to incubate for 30 minutes at room temperature.
Using a Mantis, 1 μL, of an 8 μM ATP solution was added to each well, and the plate was allowed to incubate for another 1 hour at room temperature. […] All experiments were done in triplicate on the plate, and at least in one separate technical duplicate.

[4] = test system: JNK phosphorylation in MiaPaCa2 cells; assay: anisomycin-induced JNK phosphorylation, western blotting, MiaPaCa2; assay type: cell-based, human; conditions: MiaPaCa2, anisomycin 45 minutes then compound 5 hours
Procedure: as §7, §4, §5, §6

ERK1 = molecular target: T2, ERK1 (Homo sapiens, UniProt P27361); assay: scanEDGE DiscoverX kinome-wide scan, ERK1; assay type: binding; conditions: 10 μM
T2 construct: purchased Eurofins DiscoverX scanEDGE
Text: as §1

[5] = PAMPA assay (BioDuro-Sundia); assay type: in vitro ADME
RAF = molecular target: T3, RAF (Homo sapiens, UniProt P04049); assay: scanEDGE DiscoverX kinome-wide scan, RAF; assay type: binding; conditions: 10 μM
T3 construct: purchased Eurofins DiscoverX scanEDGE
Text: as §1

[6] = test system: phospho-p42/44 MAPK in HEK293T cells; assay: p42/44 MAPK (ERK1/2) phosphorylation, western blotting, HEK293T; assay type: cell-based, human; conditions: anisomycin pretreatment, compound 100 μM, 5 hours
Procedure: as §7, §8, §6

CYP 1A2 = CYP 1A2 (Homo sapiens, UniProt P05177)
BRAF = molecular target: T4, BRAF (Homo sapiens, UniProt P15056); assay: scanEDGE DiscoverX kinome-wide scan, BRAF; assay type: binding; conditions: 10 μM
T4 construct: purchased Eurofins DiscoverX scanEDGE
Text: as §1

CYP isoforms 3A4/5 = assay: CYP inhibition, 3A4/5
Caco-2 = Caco-2 permeability assay; assay type: in vitro ADME

T3 sequence (P04049 whole entry): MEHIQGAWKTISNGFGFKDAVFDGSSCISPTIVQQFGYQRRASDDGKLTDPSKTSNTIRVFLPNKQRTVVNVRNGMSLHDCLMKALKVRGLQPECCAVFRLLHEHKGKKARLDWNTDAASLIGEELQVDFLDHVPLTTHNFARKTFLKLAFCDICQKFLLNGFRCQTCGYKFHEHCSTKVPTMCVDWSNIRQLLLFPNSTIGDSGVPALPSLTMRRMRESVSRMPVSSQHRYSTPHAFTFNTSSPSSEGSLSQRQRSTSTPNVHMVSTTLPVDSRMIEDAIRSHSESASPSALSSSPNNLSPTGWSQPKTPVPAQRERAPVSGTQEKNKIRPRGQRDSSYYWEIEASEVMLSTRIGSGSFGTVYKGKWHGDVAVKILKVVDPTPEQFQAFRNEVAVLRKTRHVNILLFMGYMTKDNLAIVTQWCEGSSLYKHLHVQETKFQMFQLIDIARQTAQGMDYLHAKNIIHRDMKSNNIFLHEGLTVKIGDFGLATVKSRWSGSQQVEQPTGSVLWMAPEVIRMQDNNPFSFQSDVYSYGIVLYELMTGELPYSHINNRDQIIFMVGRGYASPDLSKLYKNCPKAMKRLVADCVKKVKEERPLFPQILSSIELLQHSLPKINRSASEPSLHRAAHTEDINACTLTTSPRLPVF
T2 sequence (P27361 whole entry): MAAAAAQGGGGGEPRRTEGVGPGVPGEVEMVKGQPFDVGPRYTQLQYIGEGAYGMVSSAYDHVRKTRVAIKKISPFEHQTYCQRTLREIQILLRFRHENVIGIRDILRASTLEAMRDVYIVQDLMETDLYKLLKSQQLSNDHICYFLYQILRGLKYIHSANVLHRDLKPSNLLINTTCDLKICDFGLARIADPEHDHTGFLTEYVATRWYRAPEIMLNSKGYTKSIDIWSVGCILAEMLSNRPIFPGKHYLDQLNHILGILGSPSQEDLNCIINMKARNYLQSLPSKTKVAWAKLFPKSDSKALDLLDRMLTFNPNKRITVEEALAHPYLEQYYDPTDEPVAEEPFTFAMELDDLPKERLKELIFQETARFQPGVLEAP
T4 sequence (P15056 whole entry): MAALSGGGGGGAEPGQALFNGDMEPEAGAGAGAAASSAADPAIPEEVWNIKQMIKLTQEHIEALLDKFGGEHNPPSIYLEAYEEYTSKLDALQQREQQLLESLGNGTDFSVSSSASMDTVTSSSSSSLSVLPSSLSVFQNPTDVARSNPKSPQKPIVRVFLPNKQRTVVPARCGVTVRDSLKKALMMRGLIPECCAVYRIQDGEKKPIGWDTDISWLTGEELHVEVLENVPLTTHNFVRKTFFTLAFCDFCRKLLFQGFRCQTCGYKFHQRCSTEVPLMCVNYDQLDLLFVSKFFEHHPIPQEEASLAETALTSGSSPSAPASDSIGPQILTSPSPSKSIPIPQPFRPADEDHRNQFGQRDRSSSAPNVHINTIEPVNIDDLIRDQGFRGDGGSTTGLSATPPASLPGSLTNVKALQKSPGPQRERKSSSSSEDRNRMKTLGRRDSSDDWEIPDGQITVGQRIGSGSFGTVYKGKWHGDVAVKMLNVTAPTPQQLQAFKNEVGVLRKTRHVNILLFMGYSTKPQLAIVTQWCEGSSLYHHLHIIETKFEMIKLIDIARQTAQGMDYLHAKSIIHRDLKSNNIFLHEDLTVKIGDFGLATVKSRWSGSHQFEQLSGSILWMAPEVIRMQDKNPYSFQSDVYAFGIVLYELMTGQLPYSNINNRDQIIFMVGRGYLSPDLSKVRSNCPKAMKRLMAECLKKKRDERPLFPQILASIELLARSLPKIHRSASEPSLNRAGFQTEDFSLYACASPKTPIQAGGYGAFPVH
Chain of CYP 1A2 (P05177 whole entry): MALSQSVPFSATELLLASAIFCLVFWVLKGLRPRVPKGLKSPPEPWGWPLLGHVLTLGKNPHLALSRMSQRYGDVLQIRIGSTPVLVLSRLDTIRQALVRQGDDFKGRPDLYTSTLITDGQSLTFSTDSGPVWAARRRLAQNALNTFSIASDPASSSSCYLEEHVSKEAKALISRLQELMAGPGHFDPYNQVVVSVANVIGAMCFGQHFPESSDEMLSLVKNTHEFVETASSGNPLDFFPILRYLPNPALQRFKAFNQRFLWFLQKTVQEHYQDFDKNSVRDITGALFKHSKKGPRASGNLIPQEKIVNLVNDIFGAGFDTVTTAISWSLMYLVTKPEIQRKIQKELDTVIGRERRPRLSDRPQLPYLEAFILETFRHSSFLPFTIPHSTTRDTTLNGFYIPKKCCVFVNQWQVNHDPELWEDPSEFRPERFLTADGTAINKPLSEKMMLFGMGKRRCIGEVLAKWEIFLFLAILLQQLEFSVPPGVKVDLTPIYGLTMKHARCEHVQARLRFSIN

NC(=O)c1ccc(NS(=O)(=O)c2cccc(-c3n[nH]c4cc(F)ccc34)c2)cc1 [Compound 15o, 4-((3-(6-fluoro-1H-indazol-3-yl)phenyl)sulfonamido)benzamide]
inhibition of JNK1/2/3 (JNK1/2/3): did inhibit | number of kinases hit at 80% or higher inhibition, out of 97 kinases (97 kinases): 28 | cell proliferation (CD18 cells): decreased proliferation; also recorded: antiproliferative properties | cell proliferation (MiaPaCa2 cells): decreased proliferation; also recorded: antiproliferative properties | effect on anisomycin-induced JNK phosphorylation [1]: attenuated anisomycin-induced INK phosphorylation in a dose-dependent manner | effect on anisomycin-induced JNK phosphorylation [2]: attenuated anisomycin-induced JNK phosphorylation | effect on the expression of MEK7 [3]: no effect | IC50 (MEK7; headline value per compound, read-out: MEK7 IC50): 96 nM | IC50 (MEK7; individual experiment, values in brackets, n=3, read-out: MEK7 IC50 of each experiment (IC50±SEM)): 41 nM and 150 nM | effect on anisomycin-induced JNK phosphorylation [4]: attenuated anisomycin-induced JNK phosphorylation | inhibition of ERK1 (ERK1): did not inhibit | permeability in the PAMPA assay [5]: low permeability | inhibition of RAF (RAF): did not inhibit | effect on p42/44 MAPK phosphorylation after anisomycin [6]: reversed the effects of anisomycin | inhibition of CYP 1A2 (CYP 1A2): inhibited | inhibition of BRAF (BRAF): did not inhibit | inhibition of CYP isoforms 3A4/5 (CYP isoforms 3A4/5): did not inhibit | Caco-2 permeability (Caco-2): medium to high permeability | Pgp substrate (Caco-2; Caco-2 permeability assay): likely to be a Pgp substrate
